Measured values taken from the CheMixHub viscosity set.

Assay: xn = mol fraction of the nth substance listed

CC(=O)OCCC(C)C + Clc1ccccc1
viscosity [mPa·s], 101 kPa
Conditions | 298.15 K | 303.15 K | 308.15 K | 313.15 K
x1 = 0.0458 | 0.75 | – | 0.678 | –
x1 = 0.0705 | – | 0.718 | – | 0.634
x1 = 0.1467 | – | 0.729 | – | 0.643
x1 = 0.1506 | 0.741 | – | 0.676 | –
x1 = 0.2271 | – | 0.74 | – | 0.654
x1 = 0.251 | 0.735 | – | 0.677 | –
x1 = 0.3141 | – | 0.751 | – | 0.662
x1 = 0.3515 | 0.732 | – | 0.681 | –
x1 = 0.4073 | – | 0.758 | – | 0.669
x1 = 0.4513 | 0.731 | – | 0.684 | –
x1 = 0.4998 | 0.732 | – | 0.687 | –
x1 = 0.5006 | – | 0.767 | – | 0.675
x1 = 0.5511 | 0.734 | – | 0.691 | –
x1 = 0.6085 | – | 0.768 | – | 0.674
x1 = 0.6517 | 0.739 | – | 0.699 | –
x1 = 0.728 | – | 0.766 | – | 0.671
x1 = 0.7519 | 0.747 | – | 0.71 | –
x1 = 0.8507 | 0.758 | – | 0.723 | –
x1 = 0.8573 | – | 0.758 | – | 0.661
x1 = 0.9448 | 0.772 | – | 0.737 | –

CCOP(OCC)OCC + N#Cc1ccccc1
298.15 K, 101 kPa
Conditions | viscosity [mPa·s]
x1 = 0.2 | 1.089
x1 = 0.4 | 0.963
x1 = 0.6 | 0.848
x1 = 0.8 | 0.781

CC(=O)Nc1ccccc1 + Nc1ccccc1
viscosity [mPa·s], 101.3 kPa
Conditions | 298.15 K | 323.15 K
x1 = 0.108 | 46.7 | 23.6
x1 = 0.195 | 113.4 | 42.5

CC(=O)O.OCCNCCO + O
viscosity [mPa·s], 100 kPa
Conditions | x1 = 0.0126 | x2 = 0.1586 | x2 = 0.2897 | x2 = 0.4528 | x2 = 0.5293 | x2 = 0.6932 | x2 = 0.8573 | x2 = 0.9194 | x2 = 0.9549
293.15 K | 1.37 | 3625 | 2208 | 1042 | 658.3 | 162.6 | 19.25 | 6.362 | 3.027
303.15 K | 1.099 | 1492 | 946.1 | 473.9 | 310.7 | 87.19 | 12.67 | 4.584 | 2.301
313.15 K | 0.9188 | 686.5 | 452 | 239.3 | 162.4 | 51.05 | 8.836 | 3.442 | 1.818
323.15 K | 0.7821 | 346.1 | 236.3 | 131.8 | 92.22 | 32.12 | 6.455 | 2.69 | 1.484

CC(C)COCCO + O
298.15 K, 101 kPa
Conditions | viscosity [mPa·s]
x1 = 0.0037 | 0.9
x1 = 0.016 | 1.2
x1 = 0.0469 | 2.4
x1 = 0.0611 | 2.7
x1 = 0.11 | 3.65
x1 = 0.177 | 4.27
x1 = 0.263 | 4.4
x1 = 0.764 | 3.7

CCCC(=O)[O-].[NH3+]CCO + O
viscosity [mPa·s], 101 kPa
Conditions | x1 = 0.0063 | x1 = 0.0132 | x2 = 0.8927 | x2 = 0.9254 | x2 = 0.9508 | x2 = 0.9707 | x2 = 0.9793
293.15 K | 1.38 | 1.662 | 9.498 | 5.73 | 3.702 | 2.46 | 1.98
298.15 K | 1.248 | 1.476 | 7.89 | 4.836 | 3.21 | 2.145 | 1.776
303.15 K | 1.104 | 1.32 | 6.6 | 4.182 | 2.814 | 1.878 | 1.59

N[C@@H](Cc1c[nH]c2ccccc12)C(=O)O + O
303 K, 100 kPa
Conditions | viscosity [mPa·s]
x1 = 0.087 | 0.934
x1 = 0.0954 | 1
x1 = 0.0971 | 1.018
x1 = 0.0979 | 1.055
x1 = 0.0983 | 1.077
x1 = 0.0985 | 1.101

O=P(O)(O)O + O
Conditions | viscosity [mPa·s]
293.15 K, 101 kPa, x1 = 0.404 | 27.7
293.15 K, 101 kPa, x1 = 0.441 | 32.01
293.15 K, 101 kPa, x1 = 0.504 | 46.83
293.15 K, 101 kPa, x1 = 0.537 | 54.26
293.15 K, 101 kPa, x1 = 0.574 | 64.47
293.15 K, 101 kPa, x1 = 0.603 | 69.15
293.15 K, 101 kPa, x1 = 0.616 | 75.28
293.15 K, 101 kPa, x1 = 0.626 | 79.2
298 K, 101.33 kPa, x1 = 0.0038 | 0.939
298 K, 101.33 kPa, x1 = 0.007 | 0.979
298 K, 101.33 kPa, x1 = 0.014 | 1.075
298 K, 101.33 kPa, x1 = 0.0215 | 1.191
298 K, 101.33 kPa, x1 = 0.029 | 1.307
298 K, 101.33 kPa, x1 = 0.0376 | 1.457
298 K, 101.33 kPa, x1 = 0.0462 | 1.62
298 K, 101.33 kPa, x1 = 0.0537 | 1.786
298 K, 101.33 kPa, x1 = 0.0604 | 1.955
298 K, 101.33 kPa, x1 = 0.0714 | 2.204
298 K, 101.33 kPa, x1 = 0.0832 | 2.521
298 K, 101.33 kPa, x1 = 0.0925 | 2.842
298 K, 101.33 kPa, x1 = 0.1 | 3.033
298 K, 101.33 kPa, x1 = 0.106 | 3.198
298 K, 101.33 kPa, x1 = 0.111 | 3.378
298 K, 101.33 kPa, x1 = 0.151 | 4.902
298 K, 101.33 kPa, x1 = 0.2128 | 7.936
298 K, 101.33 kPa, x1 = 0.2654 | 11.32
298 K, 101.33 kPa, x1 = 0.311 | 14.88
298 K, 101.33 kPa, x1 = 0.3511 | 18.8
298 K, 101.33 kPa, x1 = 0.3871 | 22.93
298 K, 101.33 kPa, x1 = 0.422 | 27.24
298 K, 101.33 kPa, x1 = 0.4737 | 35.19
298 K, 101.33 kPa, x1 = 0.5388 | 46.3
298 K, 101.33 kPa, x1 = 0.6043 | 59.76
298.15 K, 100 kPa, x2 = 0.333 | 70.64
298.15 K, 101 kPa, x1 = 0.0018 | 0.9162
298.15 K, 101 kPa, x1 = 0.0054 | 0.9543
298.15 K, 101 kPa, x1 = 0.0089 | 1
298.15 K, 101 kPa, x1 = 0.012 | 1.054
298.15 K, 101 kPa, x1 = 0.016 | 1.089
298.15 K, 101 kPa, x1 = 0.404 | 24.33
298.15 K, 101 kPa, x1 = 0.441 | 27.61
298.15 K, 101 kPa, x1 = 0.504 | 37.59
298.15 K, 101 kPa, x1 = 0.537 | 43.17
298.15 K, 101 kPa, x1 = 0.574 | 50.35
298.15 K, 101 kPa, x1 = 0.603 | 54.12
298.15 K, 101 kPa, x1 = 0.616 | 60.3
298.15 K, 101 kPa, x1 = 0.626 | 64.75
303.15 K, 100 kPa, x2 = 0.333 | 55.6
303.15 K, 101 kPa, x1 = 0.0018 | 0.8163
303.15 K, 101 kPa, x1 = 0.0054 | 0.8526
303.15 K, 101 kPa, x1 = 0.0089 | 0.8928
303.15 K, 101 kPa, x1 = 0.012 | 0.9281
303.15 K, 101 kPa, x1 = 0.016 | 0.9679
303.15 K, 101 kPa, x1 = 0.404 | 20.3
303.15 K, 101 kPa, x1 = 0.441 | 23.66
303.15 K, 101 kPa, x1 = 0.504 | 30.35
303.15 K, 101 kPa, x1 = 0.537 | 34.61
303.15 K, 101 kPa, x1 = 0.574 | 38.68
303.15 K, 101 kPa, x1 = 0.603 | 43.03
303.15 K, 101 kPa, x1 = 0.616 | 46.81
303.15 K, 101 kPa, x1 = 0.626 | 52.57
308.15 K, 100 kPa, x2 = 0.333 | 46.73
308.15 K, 101 kPa, x1 = 0.0018 | 0.7331
308.15 K, 101 kPa, x1 = 0.0054 | 0.763
308.15 K, 101 kPa, x1 = 0.0089 | 0.794
308.15 K, 101 kPa, x1 = 0.012 | 0.84
308.15 K, 101 kPa, x1 = 0.016 | 0.8774
308.15 K, 101 kPa, x1 = 0.404 | 17.53
308.15 K, 101 kPa, x1 = 0.441 | 19.85
308.15 K, 101 kPa, x1 = 0.504 | 24.19
308.15 K, 101 kPa, x1 = 0.537 | 27.64
308.15 K, 101 kPa, x1 = 0.574 | 31.89
308.15 K, 101 kPa, x1 = 0.603 | 33.9
308.15 K, 101 kPa, x1 = 0.616 | 37.64
308.15 K, 101 kPa, x1 = 0.626 | 41.08
313.15 K, 100 kPa, x2 = 0.333 | 39.76
313.15 K, 101 kPa, x1 = 0.404 | 14.63
313.15 K, 101 kPa, x1 = 0.441 | 17.7
313.15 K, 101 kPa, x1 = 0.504 | 21.48
313.15 K, 101 kPa, x1 = 0.537 | 22.64
313.15 K, 101 kPa, x1 = 0.574 | 25.3
313.15 K, 101 kPa, x1 = 0.603 | 27.25
313.15 K, 101 kPa, x1 = 0.616 | 29.46
313.15 K, 101 kPa, x1 = 0.626 | 32.1
318.15 K, 100 kPa, x2 = 0.333 | 32.46
323.15 K, 100 kPa, x2 = 0.333 | 27.57

OCCC(O)CO (stereo not drawn) + O
viscosity [mPa·s], 101 kPa
Conditions | 293.15 K | 298.15 K | 303.15 K | 308.15 K | 313.15 K | 318.15 K | 323.15 K
x1 = 0.005 | 1.089 | 0.984 | 0.889 | 0.798 | 0.7 | 0.656 | 0.595
x1 = 0.01 | 1.271 | 1.096 | 0.968 | 0.863 | 0.769 | 0.703 | 0.626
x1 = 0.015 | 1.46 | 1.193 | 1.067 | 0.942 | 0.853 | 0.77 | 0.678
x1 = 0.02 | 1.617 | 1.328 | 1.195 | 1.058 | 0.937 | 0.857 | 0.732
